Measured values from publication PMC12588083, “Validated antimalarial drug target discovery using genome-scale metabolic modeling” (Antimicrobial Agents and Chemotherapy, 2025).

Experiments:
[1] = molecular target: recombinant PfUCK (P. falciparum UMP-CMP kinase, PfUCK-Δ23) (Plasmodium falciparum, UniProt Q8I231); experiment: Inhibition constant (Ki) determination, coupled PK/LDH NADH assay, recombinant PfUCK; format: biochemical; settings: for Ki—PfUCK: Table 4, benzoylacetonitrile derivatives, 1 mM CMP, competitive equation
recombinant PfUCK (P. falciparum UMP-CMP kinase, PfUCK-Δ23), sequence (Q8I231 entry or part of it, stated change not applied): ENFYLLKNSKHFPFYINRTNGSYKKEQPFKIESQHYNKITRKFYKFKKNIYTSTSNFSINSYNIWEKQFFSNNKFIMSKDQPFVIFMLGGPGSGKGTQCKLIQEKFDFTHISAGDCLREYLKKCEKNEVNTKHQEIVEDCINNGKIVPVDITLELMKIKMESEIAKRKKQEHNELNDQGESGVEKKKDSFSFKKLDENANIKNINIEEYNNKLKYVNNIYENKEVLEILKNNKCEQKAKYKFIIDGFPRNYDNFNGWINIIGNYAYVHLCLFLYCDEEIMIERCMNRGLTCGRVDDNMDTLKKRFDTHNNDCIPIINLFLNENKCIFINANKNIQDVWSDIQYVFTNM
Description: The hydrophobic core at the protein’s N-terminus may cause poor expression and low solubility in E. coli. Therefore, a truncated gene was created where the ORF began at amino acid residues 24–371, encoding a 348 amino acid protein. […] Briefly, protein expression was induced with isopropyl-D-thiogalactoside, incubated at 16°C with shaking at 200 RPM for 20 hours, and the cell pellet resuspended in binding buffer (50 mM Tris [pH 7.6], 300 mM NaCl, 20 mM imidazole, 5% glycerol, and 0.075% β-mercaptoethanol), with cell disruption using an Avestin C3 Cell Disrupter. Cell debris was removed, and the UCK was purified by Ni-NTA affinity purification. The protein was eluted from the column using a linear gradient of imidazole ([…]) in elution buffer (50 mM Tris [pH 7.6], 300 mM NaCl, 5% glycerol, and 0.075% β-mercaptoethanol). […] The concentrated protein was then stored at −70°C in a storage buffer (25 mM Tris-HCl, 50 mM KCl, and 20% glycerol; pH 7.0).
The final concentration of dimethyl sulfoxide (Merck, Catalog number 472301) in the assay reaction was maintained at 1%.

P. falciparum 3D7 = experiment: Antiplasmodial activity (IC50), SYBR Green fluorescence, 48 hours; format: cell-based, Plasmodium falciparum
Description: P. falciparum 3D7 parasites underwent two synchronization cycles with D-sorbitol initiating the inhibitor testing. Parasitemia and hematocrit were adjusted to 0.5% and 3%, respectively. Synchronized ring parasites were cultured in 96-well plates in complete RPMI medium with varying inhibitor concentrations. Inhibitor stock solutions, mostly at 100 mM, were prepared in DMSO. […] Triplicate wells were prepared for each compound. Negative controls included wells with uninfected red cells (3% hematocrit) in complete RPMI medium.
Culture plates were incubated in a chamber with controlled gas conditions at 37°C. After 48 hours, parasites were quantified using a fluorescence-based assay with SYBR Green dye as previously described ([51]). Lysis buffer containing SYBR Green was added to each well, and plates were incubated at room temperature for 45 minutes and protected from the light. Fluorescence was measured using a microplate reader (POLARstar OPTIMA, BMG Labtech) with excitation at 485 nm and detection at 520 nm. Background fluorescence of uninfected red cells was subtracted, and dose-response curves were plotted against inhibitor concentration. IC50 values were determined using nonlinear regression curve fitting in GraphPad Prism software.

[2] = test system: synchronised Plasmodium falciparum 3D7 cultures; experiment: In vitro flux measurements of glucose and amino acids in spent media; format: cell-based; settings: ± SD, positive = into infected red blood cell, negative = efflux into media; for flux 6 - 18 hps: early to mid-ring stage; for flux 42 - 48 hps: late schizont stage; for flux 30 - 36 hps: late trophozoite stage
Description: Cultures were synchronized with 5% sorbitol ([36]). Synchronized cultures with a total volume of 18 mL at 1% parasitemia and 5% hematocrit were placed in nonvented 75 cm^2 tissue culture flasks (Nunclon). Red blood cells at 5% hematocrit were used as control. One milliliter of culture was collected at time 0 and every 6 hours until 48 hours post synchronization. The collected sample was placed in a 1.5 mL microcentrifuge tube and centrifuged at 3,000 RPM for 2 minutes. The spent media were collected and stored at −80°C prior to analysis. Three biological replicates were analyzed.
A glucose assay on the spent media was performed using a glucose oxidase-peroxidase format assay kit (Megazyme). Amino acid concentrations in the spent media were determined using an Ultimate 3000 High-Performance Liquid Chromatography system (Dionex, UK). A ramp gradient reverse-phase chromatography was done with an Acclaim 120 C18 (Dionex, UK) 100 × 2.1 mm column (3 µm particle size, 120 Å pore size) stationary phase. Eluent A (10 mM Na2HPO4, 10 mM Na2HB4O7·10 H2O, 0.5 mM NaN3, pH 8.2) and eluent B (45% methanol [vol/vol] 45% acetonitrile [vol/vol] in water) constituted the mobile phase (Table S1).
Samples were derivatized manually within 10 minutes prior to chromatography. The derivatization procedure was done in a 1.5 mL microcentrifuge tube at room temperature by adding the following reagents in this particular order:
Spent media for both infected and uninfected (control) samples were assayed for glucose and amino acid concentrations as detailed above. The net metabolite flux from time 0 ( t0 ) to time n ( tn ) was calculated using the formula:
fluxt0-tn=vt0×∆Ci-∆Cu/gDWt0×∆t
The parasite mass gDWt0 was determined using the calculated number of parasites based on the parasitemia, hematocrit, and the volume at t0 :
In this case, it was assumed for simplicity that each infected RBC contained only one parasite. […] Flux calculations were done to represent the three main blood stage forms: the change in concentration from t6 to t18 was used to calculate the early to mid-ring stage flux, from t30 to t36 for the late trophozoite, and from t42 to t48 for the late schizont stage. […] A positive flux represents the entry of metabolites into the model, while a negative flux represents the movement of metabolites into the external environment.
Supplementary Table 5 Experimental glucose and amino acid flux measurements. […] A positive flux indicates movement of the metabolite into the infected red blood cell while a negative flux indicates efflux of the metabolite into the media.

[3] = Plasmodium falciparum, 3D7, 48 h, Supplementary Table 7, benzoylacetonitrile derivatives
[4] = Supplementary Table 7, benzoylacetonitrile derivatives

Structure (SMILES) | Ki—PfUCK [1] | flux 6 - 18 hps [2] | flux 42 - 48 hps [2] | flux 30 - 36 hps [2] | further results
COc1ccc(C(=O)CC#N)cc1 [Compound C8] | no inhibition at 1 mM |  |  |  | 
COC(=O)c1ccc(C(=O)CC#N)cc1 [Compound C9] | insoluble |  |  |  | 
N#CCC(=O)c1ccc(Cl)cc1 [Compound C10] | No inhibition at 1 mM |  |  |  | 
N#CCC(=O)c1ccccc1 [Compound C11] | No inhibition at 1 mM |  |  |  | 
N#CCC(=O)c1cccc(Br)c1 [Compound C37] | no inhibition at 1 mM |  |  |  | 
C=CC(=O)N1CCC(C(=O)NCc2cc(=O)n3ccccc3n2)CC1 [Compound C58] |  |  |  |  | IC50 (P. falciparum 3D7; Plasmodium falciparum, 3D7, 48 h, Table 5): > 1000 µM; Ki [1]: 2.11 ± 0.21 µM
N#CCC(=O)c1cc(Cl)cc(Cl)c1 [Compound C62] | No inhibition at 1 mM |  |  |  | 
N#CCC(=O)c1cccc(Cl)c1Cl [Compound C64] | No inhibition at 1 mM |  |  |  | 
COc1cccc(C(=O)CC#N)c1 [Compound C65] | no inhibition at 1 mM |  |  |  | 
Cc1cccc(C(=O)CC#N)c1 [Compound C66] | No inhibition at 1 mM |  |  |  | IC50 (P. falciparum 3D7; [3]): > 310 µM; IC50 (P. falciparum 3D7; [4]): 310 ± 57.9 µM
N#CCC(=O)c1cncc(Br)c1 [Compound C67] |  |  |  |  | IC50 (P. falciparum 3D7; [3]): 531 ± 61.2 µM; Ki [1]: 4.38 ± 1.45 µM
N#CCC(=O)c1cccc(C(F)(F)F)c1 [Compound C69] | No inhibition at 1 mM |  |  |  | 
N#CCC(=O)c1ccc(CN2CCOCC2)cc1 [Compound C77] | No inhibition at 1 mM |  |  |  | 
N#CCC(=O)c1ccc(-c2ccccc2)cc1 [Compound C79] | No inhibition at 1 mM |  |  |  | 
N#CCC(=O)c1cccc([N+](=O)[O-])c1 [Compound C80] | No inhibition at 1 mM |  |  |  | 
N#CCC(=O)c1cc(C(F)(F)F)cc(C(F)(F)F)c1 [Compound C83] |  |  |  |  | IC50 (P. falciparum 3D7; [3]): > 310 µM; IC50 (P. falciparum 3D7; [4]): 317 ± 50.8 µM; Ki [1]: 4.66 ± 0.29 µM
OC[C@H]1OC(O)[C@H](O)[C@@H](O)[C@@H]1O (stereo partly drawn) [D-Glucose] |  | 1.3 ± 0.82 mmol/gDW/hr | 0.60 ± 0.21 mmol/gDW/hr | 3.2 ± 1.2 mmol/gDW/hr | 
NCC(=O)O [Glycine] |  | -0.014 ± 0.028 mmol/gDW/hr | 0.037 ± 0.17 mmol/gDW/hr | -0.0093 ± 0.12 mmol/gDW/hr | 

Structure (SMILES) | Ki—PfUCK [1] | flux 6 - 18 hps [2] | flux 42 - 48 hps [2] | flux 30 - 36 hps [2] | further results
C[C@H](N)C(=O)O [L-Alanine] |  | -0.023 ± 0.017 mmol/gDW/hr | 0.00 ± 0.024 mmol/gDW/hr | -0.041 ± 0.036 mmol/gDW/hr | 
N=C(N)NCCC[C@H](N)C(=O)O [L-Arginine] |  | 0.072 ± 0.11 mmol/gDW/hr | 0.22 ± 0.35 mmol/gDW/hr | -0.15 ± 0.49 mmol/gDW/hr | 
NC(=O)C[C@H](N)C(=O)O [L-Asparagine] |  | -0.0094 ± 0.011 mmol/gDW/hr | 0.070 ± 0.17 mmol/gDW/hr | -0.10 ± 0.12 mmol/gDW/hr | 
N[C@@H](CC(=O)O)C(=O)O [L-Aspartic acid] |  | 0.0048 ± 0.011 mmol/gDW/hr | 0.019 ± 0.058 mmol/gDW/hr | 0.00 ± 0.029 mmol/gDW/hr | 
N[C@@H](CCC(=O)O)C(=O)O [L-Glutamic acid] |  | -0.019 ± 0.0081 mmol/gDW/hr | 0.0047 ± 0.077 mmol/gDW/hr | -0.056 ± 0.024 mmol/gDW/hr | 
NC(=O)CC[C@H](N)C(=O)O [L-Glutamine] |  | 0.00 ± 0.023 mmol/gDW/hr | 0.36 ± 0.72 mmol/gDW/hr | -0.40 ± 0.63 mmol/gDW/hr | 
N[C@@H](Cc1c[nH]cn1)C(=O)O [L-Histidine] |  | -0.0073 ± 0.013 mmol/gDW/hr | 0.066 ± 0.076 mmol/gDW/hr | -0.066 ± 0.095 mmol/gDW/hr | 
CC[C@H](C)[C@H](N)C(=O)O [L-Isoleucine] |  | 0.017 ± 0.023 mmol/gDW/hr | 0.081 ± 0.14 mmol/gDW/hr | -0.062 ± 0.14 mmol/gDW/hr | 
CC(C)C[C@H](N)C(=O)O [L-Leucine] |  | 0.28 ± 0.065 mmol/gDW/hr | 0.047 ± 0.10 mmol/gDW/hr | -0.14 ± 0.070 mmol/gDW/hr | 
NCCCC[C@H](N)C(=O)O [L-Lysine] |  | 0.00 ± 0.064 mmol/gDW/hr | 0.073 ± 0.29 mmol/gDW/hr | 0.038 ± 0.20 mmol/gDW/hr | 
CSCC[C@H](N)C(=O)O [L-Methionine] |  | 0.0024 ± 0.0082 mmol/gDW/hr | 0.028 ± 0.025 mmol/gDW/hr | -0.028 ± 0.025 mmol/gDW/hr | 
N[C@@H](Cc1ccccc1)C(=O)O [L-Phenylalanine] |  | -0.0099 ± 0.016 mmol/gDW/hr | 0.025 ± 0.023 mmol/gDW/hr | -0.035 ± 0.0086 mmol/gDW/hr | 
N[C@@H](CO)C(=O)O [L-Serine] |  | -0.019 ± 0.021 mmol/gDW/hr | 0.062 ± 0.11 mmol/gDW/hr | -0.062 ± 0.091 mmol/gDW/hr | 
C[C@@H](O)[C@H](N)C(=O)O [L-Threonine] |  | -0.014 ± 0.026 mmol/gDW/hr | 0.028 ± 0.099 mmol/gDW/hr | -0.038 ± 0.050 mmol/gDW/hr | 
N[C@@H](Cc1c[nH]c2ccccc12)C(=O)O [L-Tryptophan] |  | 0.0026 ± 0.0045 mmol/gDW/hr | 0.010 ± 0.024 mmol/gDW/hr | 0.010 ± 0.036 mmol/gDW/hr | 
N[C@@H](Cc1ccc(O)cc1)C(=O)O [L-Tyrosine] |  | -0.0051 ± 0.0044 mmol/gDW/hr | -0.046 ± 0.17 mmol/gDW/hr | -0.031 ± 0.031 mmol/gDW/hr | 
CC(C)[C@H](N)C(=O)O [L-Valine] |  | -0.036 ± 0.098 mmol/gDW/hr | 0.024 ± 0.12 mmol/gDW/hr | -0.0096 ± 0.022 mmol/gDW/hr | 
